The assay relates to BaF3. In words: Antiproliferative activity against mouse BaF3 cells expressing Bcr-Abl assessed as cell growth inhibition. The format is functional.
As a reminder, the GI50 is the concentration at which growth is held to half of that of the control. For `FC(F)(F)Oc1ccc(Nc2cc(-c3cn[nH]c3)ncn2)cc1`, the GI50 came to 90 nM.

With `FC(F)(F)Oc1ccc(Nc2cc(NCCN3CCOCC3)ncn2)cc1`, the GI50 is 720 nM.

For the compound `FC(F)(F)c1ccc(Nc2cc(NCCN3CCOCC3)ncn2)cc1`, the GI50 stood at 920 nM.

`FC(F)(F)Oc1cccc(Nc2cc(NCCN3CCOCC3)ncn2)c1`: the GI50 was determined as 720 nM.

Regarding `NS(=O)(=O)c1ccc(-c2cc(Nc3ccc(OC(F)(F)F)cc3)ncn2)cc1`, the GI50 came out at 120 nM.

Turning to `FC(F)(F)Oc1ccc(Nc2cc(-c3ccc4[nH]ccc4c3)ncn2)cc1`, the GI50 came out at 290 nM.
